Laboratory results reported in patent US6384044B1, “Method of treating cancer of the prostate” (priority 1999, dated 2002).

System: cancer of the prostate
Test: Case reports: treatment of patients with cancer of the prostate (PSA level, bone scans, X-rays, rectal examination)
Assay type: in vivo, human
Experimental: Instead, a course of radiation of the involved ribs and lumbar-sacral vertebrae was carried out to reduce pain, following which the patient was referred for further treatment.
They were treated with flutamide plus leuprolide for eight weeks followed by implantation of a radioactive needle into the tumor mass. […] At this point, drug therapy was terminated and local radiation was applied to the lumbar spine to reduce pain. […] Two acquaintances in their sixties had been routinely monitoring their PSA levels every six to twelve months because of their age. […] Both were started immediately on low-dose naltrexone 3 mg/day q.h.s while they considered the desirability of undergoing standard therapies for prostate cancer. This exploration took a period of three months for one and four months for the other with both eventually electing to undergo treatment with flutamide, a testosterone blocking agent.

O=C1CC[C@@]2(O)[C@H]3Cc4ccc(O)c5c4[C@@]2(CCN3CC2CC2)[C@H]1O5 [naltrexone, Naltrexone]
Symptom-free follow-up with normal bone scans and very low PSA readings (Example 1: continued naltrexone treatment): 18 months
Tumor on bone scans (Example 1: naltrexone 3 mg/day q.h.s., after four months): disappeared
PSA level (Example 1: person, bone metastases, after failed drug therapy and radiation, naltrexone 3 mg/day q.h.s., after four months): less than 1.0
X-rays of the spine (Example 2: naltrexone 3 mg day q.h.s., over five months): became normal
PSA reading (Example 2: person, lumbar vertebrae lesions, after failed drug therapy and local radiation, naltrexone 3 mg day q.h.s., over five months): zero
Tumor shrinkage (Examples 3 and 4: two men, untreated adenocarcinoma of the prostate, naltrexone 3 mg/day q.h.s. alone for three / four months): substantial shrinkage, by more than one-half
